From patent US20230323358A1, “COMPOSITION AND USE OF siRNAs AGAINST VEGFR2 AND TGF-BETA1 IN COMBINATION THERAPY FOR CANCER” (Sirnaomics, Inc., priority 2021, published 2023)
Read-outs that look alike come from different tables or passages of the source. Oligonucleotides are written 5' to 3', each unit as a sugar letter and its base; * is a phosphorothioate linkage, no mark a phosphodiester; rarer units and linkages stand in square brackets, end groups in braces. Plain capitals give the bases only. {P} = phosphorylation (indicated by P); d = 2'-deoxy (DNA); m = 2'-O-methyl; r = 2'-OH (RNA); f = 2'-fluoro

Tested on: VEGFR2
Experiment: EC50 of VEGFR2 siRNA candidates before and after modification, knockdown in cells
Assay type: cell-based, human
Conditions: for EC50: 24 h, 24well; for knockdown effect of the modified sequence compared with unmodified: PANC-1 and MDA-MB-231 cells
Protocol: MDA-MB-231 and U87 cells were seeded in 24-well cell plates (1 × 10^5/well), and then siRNAs (21mer or 25mer or negative control) were transfected with commercial transfection reagent (lipo2000), and the siRNA transfection concentration was 100 nM. Meanwhile, untreated cells were set as blank control. Total RNA was extracted from cells 24 h after transfection. Reverse transcription was performed using the kit to obtain cDNA according to the manufacturer’s instructions. Relative levels of target gene VEGFR2 mRNA expression were determined by real-time PCR, normalized to the housekeeping gene β-actin. Gene knockdown effectiveness was expressed as a percentage of the blank control. […] VEGFR2-21-h1#, VEGFR2-21-h2#, VEGFR2-21-h5#, VEGFR2-21-h7#, VEGFR2-21-hm17#, VEGFR2-21-hm18#, VEGFR2-25-h3#, and VEGFR2- 25-h4# were selected and modified as indicated in Table 3 (SEQ ID Nos. 109-124).
The EC50 of candidate sequences before and after modification in different cells (MDA-MB-231, U87-MG and PANC-1) were compared. MDA-MB-231, PANC-1 and U87-MG cells were seeded in 24-well cell plates (1 × 10^5/well), and siRNA candidates (modified or unmodified) were transfected with multiple concentration gradients in different cells. Use the same procedure as the primary screen. Finally, the data were plotted using the software GraphPad Prism8 and EC50 values were calculated.

[1] = MD-MB-231 cells, read-out: EC50 (nM, 24 h, 24well) Breast cancer MD-MB-231
[2] = PANC-1 cells, read-out: EC50 (nM, 24 h, 24well) Pancreatic cancer PANC-1
[3] = U87-MG cells, read-out: EC50 (nM, 24 h, 24well) Brain cancer U87-MG

Row | Substance | EC50 [1] [nM] | EC50 [2] [nM] | EC50 [3] [nM] | knockdown effect of the modified sequence compared with unmodified
1 | VEGFR2-21-h5#mod: Modified (2′F, 2′OME, phosphorylation) siRNA targeting VEGFR2; sense SEQ ID 137, antisense SEQ ID 145 (sense mGmCmAmUmCmAfGfCfAmUmAmAmGmAmAmAmCmUmUdTdT; antisense {P}-mAfAmGmUmUmUmCmUmUmAmUmGmCfUmGmAmUmGmCdTdT) | 0.01 | 0.22 | 10.4 | –
2 | VEGFR2-21-h7#mod: Modified (2′F, 2′OME, phosphorylation) siRNA targeting VEGFR2; sense SEQ ID 138, antisense SEQ ID 146 (sense mGmCmUmGmAmCfAfUfGmUmAmCmGmGmUmCmUmAmUdTdT; antisense {P}-mAfUmAmGmAmCmCmGmUmAmCmAmUfGmUmCmAmGmCdTdT) | 51.4 | 384 | 170 | –
3 | VEGFR2-21-hm18#: siRNA targeting VEGFR2 mRNA; sense SEQ ID 77, antisense SEQ ID 120 (sense GGAAAAAACAAAACUGUAATT; antisense UUACAGUUUUGUUUUUUCCTT; sugars from the 5' end r19 d2, backbone not given here) | 3.26 | 3.81 | 3.17 | better than that of unmodified
4 | VEGFR2-21-h2#: siRNA targeting VEGFR2 mRNA; sense SEQ ID 61, antisense SEQ ID 104 (sense GGUCCAUUUCAAAUCUCAATT; antisense UUGAGAUUUGAAAUGGACCTT; sugars from the 5' end r19 d2, backbone not given here) | 0.72 | 0.36 | 10.7 | better than that of unmodified
5 | VEGFR2-21-h1#: siRNA targeting VEGFR2 mRNA; sense SEQ ID 60, antisense SEQ ID 103 (sense GCCUAGUGUUUCUCUUGAUTT; antisense AUCAAGAGAAACACUAGGCTT; sugars from the 5' end r19 d2, backbone not given here) | 0.2 | 0.92 | 1.25 | better than that of unmodified
6 | VEGFR2-21-hm18# mod: Modified (2′F, 2′OME, phosphorylation) siRNA targeting VEGFR2; sense SEQ ID 136, antisense SEQ ID 144 (sense mGmGmAmAmAmAfAfAfCmAmAmAmAmCmUmGmUmAmAdTdT; antisense {P}-mUfUmAmCmAmGmUmUmUmUmGmUmUfUmUmUmUmCmCdTdT) | 0.02 | 0.06 | 1.57 | –
7 | VEGFR2-21-h2#mod: Modified (2′F, 2′OME, phosphorylation) siRNA targeting VEGFR2; sense SEQ ID 132, antisense SEQ ID 140 (sense mGmGmUmCmCmAfUfUfUmCmAmAmAmUmCmUmCmAmAdTdT; antisense {P}-mUfUmGmAmGmAmUmUmUmGmAmAmAfUmGmGmAmCmCdTdT) | 0.14 | 0.08 | 2.42 | –
8 | VEGFR2-25-h3#: siRNA targeting VEGFR2 mRNA; sense SEQ ID 43, antisense SEQ ID 86 (sense GACCAACAUGGAGUCGUGUACAUUA; antisense UAAUGUACACGACUCCAUGUUGGUC; RNA, backbone not given here) | 1.8 | 0.35 | 10.9 | –
9 | VEGFR2-21-hm17#mod: Modified (2′F, 2′OME, phosphorylation) siRNA targeting VEGFR2; sense SEQ ID 135, antisense SEQ ID 143 (sense mGmGmAmCmUmGfGfCfUmUmUmGmGmCmCmCmAmAmUdTdT; antisense {P}-mAfUmUmGmGmGmCmCmAmAmAmGmCfCmAmGmUmCmCdTdT) | 0.32 | 0.25 | 312 | –
10 | VEGFR2-21-hm17#: siRNA targeting VEGFR2 mRNA; sense SEQ ID 76, antisense SEQ ID 119 (sense GGACUGGCUUUGGCCCAAUTT; antisense AUUGGGCCAAAGCCAGUCCTT; sugars from the 5' end r19 d2, backbone not given here) | 1.04 | 2.09 | 16.6 | better than that of unmodified
11 | VEGFR2-25-h 4#mod: Modified (2′F, 2′OME, phosphorylation) siRNA targeting VEGFR2; sense SEQ ID 134, antisense SEQ ID 142 (sense mCmCmCmUmUmGmAmGmUmCmCmAfAfUfCmAmCmAmCmAmAmUmUmAmA; antisense {P}-mUfUmAmAmUmUmGmUmGmUmGmAmUfUmGmGmAmCmUmCmAmAmGmGmG) | 0.21 | 0.35 | 34.6 | –
12 | VEGFR2-21-h5#: siRNA targeting VEGFR2 mRNA; sense SEQ ID 64, antisense SEQ ID 107 (sense GCAUCAGCAUAAGAAACUUTT; antisense AAGUUUCUUAUGCUGAUGCTT; sugars from the 5' end r19 d2, backbone not given here) | 0.4 | 0.51 | 25.5 | better than that of unmodified
13 | VEGFR2-21-h1#mod: Modified (2′F, 2′OME, phosphorylation) siRNA targeting VEGFR2; sense SEQ ID 131, antisense SEQ ID 139 (sense mGmCmCmUmAmGfUfGfUmUmUmCmUmCmUmUmGmAmUdTdT; antisense {P}-mAfUmCmAmAmGmAmGmAmAmAmCmAfCmUmAmGmGmCdTdT) | 0.23 | 0.07 | 0.99 | –
14 | VEGFR2-21-h7#: siRNA targeting VEGFR2 mRNA; sense SEQ ID 66, antisense SEQ ID 109 (sense GCUGACAUGUACGGUCUAUTT; antisense AUAGACCGUACAUGUCAGCTT; sugars from the 5' end r19 d2, backbone not given here) | 1.72 | 3 | 49.5 | –
15 | VEGFR2-25-h4#: siRNA targeting VEGFR2 mRNA; sense SEQ ID 44, antisense SEQ ID 87 (sense CCCUUGAGUCCAAUCACACAAUUAA; antisense UUAAUUGUGUGAUUGGACUCAAGGG; RNA, backbone not given here) | 0.38 | 0.13 | 5.39 | –
16 | VEGFR2-25-h3#mod: Modified (2′F, 2′OME, phosphorylation) siRNA targeting VEGFR2; sense SEQ ID 133, antisense SEQ ID 141 (sense mGmAmCmCmAmAmCmAmUmGmGmAfGfUfCmGmUmGmUmAmCmAmUmUmA; antisense {P}-mUfAmAmUmGmUmAmCmAmCmGmAmCfUmCmCmAmUmGmUmUmGmGmUmC) | 1.65 | 1.76 | 1090 | –
